Reference: patent US10766865B2, “PKM2 modulators and methods for their use” (TOLERO PHARMACEUTICALS, INC., priority 2012, dated 2020)
Like-named read-outs stand apart in the source and are kept apart here.

Assays:
PC3 cells = assay: Cell Proliferation Assay, PC3; assay type: cell-based; conditions: Homo sapiens, PC-3; PC3, BME media lacking nonessential amino acids, 72 hours, ATPlite; read-out: Percent viability (EC50), Average
Method: Cells were seeded at 5000 cells per well (in 96-well plate) in BME media lacking nonessential amino acids+5% dialyzed serum. After 18 hours, DMSO or compound in 0.1% final concentration DMSO was added.
Percent viability (EC50) of A549 and PC3 cells was tested against certain exemplary compounds according to the above general procedures.

[1] = system: lung carcinoma cell lines; assay: Viability against a subset of lung carcinoma cell lines; assay type: cell-based; conditions: certain of 6 cell lines, media lacking serine, FIG. 4C; read-out: IC50, inhibition of cell proliferation
Method: (§1) Viability effect of Example 1 against a subset of lung carcinoma cell lines was determined as follows. Cells were seeded at 1500 cells per well in 384-well plates in BME media, and compound was added in 0.1% DMSO 18 hours later. Viability was determined by ATPlite assay after 72 hours. (See FIG. 4C).

786-O = assay: Cell line sensitivity (viability, ATPlite); assay type: cell-based; conditions: Homo sapiens, 786-0, Kidney, BME media, 72 hours, read-out: Sensitivity to Example 1 (IC50)
Method: as §1
(§2) Example 1 was tested against an expanded panel of cell lines according to the above procedure.

A549 = assay: Cell line sensitivity (viability, ATPlite); assay type: cell-based; conditions: Homo sapiens; A549, Lung; BME media, 72 hours; read-out: Sensitivity to Example 1 (IC50)
Method: as §1, §2

AsPC1 = assay: Cell line sensitivity (viability, ATPlite); assay type: cell-based; conditions: Homo sapiens; AsPC1, Pancreatic; BME media, 72 hours; read-out: Sensitivity to Example 1 (IC50)
Method: as §1, §2

HCT116 = assay: Cell line sensitivity (viability, ATPlite); assay type: cell-based; conditions: Homo sapiens, HCT-116; HCT116, Colon; BME media, 72 hours; read-out: Sensitivity to Example 1 (IC50)
Method: as §1, §2

LNCaP = assay: Cell line sensitivity (viability, ATPlite); assay type: cell-based; conditions: Homo sapiens, Prostate, BME media, 72 hours, read-out: Sensitivity to Example 1 (IC50)
Method: as §1, §2

Ls174T = assay: Cell line sensitivity (viability, ATPlite); assay type: cell-based; conditions: Homo sapiens, Colon, BME media, 72 hours, read-out: Sensitivity to Example 1 (IC50)
Method: as §1, §2

MDA-MB468 = assay: Cell line sensitivity (viability, ATPlite); assay type: cell-based; conditions: Homo sapiens, MDA-MB-468; MDA-MB468, Breast; BME media, 72 hours; read-out: Sensitivity to Example 1 (IC50)
Method: as §1, §2

MiaPaCa2 = assay: Cell line sensitivity (viability, ATPlite); assay type: cell-based; conditions: Homo sapiens, MIA PaCa-2; MiaPaCa2, Pancreatic; BME media, 72 hours; read-out: Sensitivity to Example 1 (IC50)
Method: as §1, §2

NCI-H1975 = assay: Cell line sensitivity (viability, ATPlite); assay type: cell-based; conditions: Homo sapiens; NCI-H1975, Lung; BME media, 72 hours; read-out: Sensitivity to Example 1 (IC50)
Method: as §1, §2

NCI-H460 = assay: Cell line sensitivity (viability, ATPlite); assay type: cell-based; conditions: Homo sapiens; NCI-H460, Lung; BME media, 72 hours; read-out: Sensitivity to Example 1 (IC50)
Method: as §1, §2

OVCAR-3 = assay: Cell line sensitivity (viability, ATPlite); assay type: cell-based; conditions: Homo sapiens; OVCAR-3, Ovarian; BME media, 72 hours; read-out: Sensitivity to Example 1 (IC50)
Method: as §1, §2

PL45 = assay: Cell line sensitivity (viability, ATPlite); assay type: cell-based; conditions: PL45, Pancreatic; BME media, 72 hours; read-out: Sensitivity to Example 1 (IC50)
Method: as §1, §2

PSN-1 = assay: Cell line sensitivity (viability, ATPlite); assay type: cell-based; conditions: Homo sapiens, PSN1; PSN-1, Pancreatic; BME media, 72 hours; read-out: Sensitivity to Example 1 (IC50)
Method: as §1, §2

SW48 = assay: Cell line sensitivity (viability, ATPlite); assay type: cell-based; conditions: Homo sapiens; SW48, Colon; BME media, 72 hours; read-out: Sensitivity to Example 1 (IC50)
Method: as §1, §2

SW948 = assay: Cell line sensitivity (viability, ATPlite); assay type: cell-based; conditions: Homo sapiens; SW948, Colon; BME media, 72 hours; read-out: Sensitivity to Example 1 (IC50)
Method: as §1, §2

UMUC-3 = assay: Cell line sensitivity (viability, ATPlite); assay type: cell-based; conditions: Homo sapiens, UMUC3; UMUC-3, Bladder; BME media, 72 hours; read-out: Sensitivity to Example 1 (IC50)
Method: as §1, §2

PKM2 [2] = target: T1, PKM2 (Homo sapiens, UniProt P14618); assay: PKM2 Biochemical Assay
Target sequence in this assay (P14618 whole entry): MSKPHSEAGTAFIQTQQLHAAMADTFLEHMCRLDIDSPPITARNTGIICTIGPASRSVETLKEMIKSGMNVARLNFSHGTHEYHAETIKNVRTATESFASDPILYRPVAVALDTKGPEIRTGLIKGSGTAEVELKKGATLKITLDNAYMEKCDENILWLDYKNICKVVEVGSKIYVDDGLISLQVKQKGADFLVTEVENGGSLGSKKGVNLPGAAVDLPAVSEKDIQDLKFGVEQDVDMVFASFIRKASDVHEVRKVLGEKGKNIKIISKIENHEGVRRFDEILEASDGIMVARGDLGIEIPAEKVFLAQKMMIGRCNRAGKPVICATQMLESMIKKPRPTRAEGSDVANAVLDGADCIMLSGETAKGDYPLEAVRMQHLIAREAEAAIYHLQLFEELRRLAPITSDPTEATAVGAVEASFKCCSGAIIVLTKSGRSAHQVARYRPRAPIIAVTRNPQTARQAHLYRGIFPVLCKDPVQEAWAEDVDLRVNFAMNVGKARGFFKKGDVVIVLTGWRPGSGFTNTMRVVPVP

PKM2 [3] = target: T1, PKM2; assay: Cell-Based Pyruvate Kinase Activity Assay, A549; parameters: host or cells: A549 or NCI-H1299 lung cancer cells; conditions: A549, 30 minutes with compound, n = 4; read-out: Cellular PKM2 activation EC50
Method: (§3) Cell-Based Pyruvate Kinase Activity Assay
(§4) A549 or NCI-H1299 lung cancer cells were plated at 20,000 cells per well (96-well plate) in MEM media plus 10% FBS, with no additional glutamine or pyruvate. Following overnight incubation, cells were washed with PBS followed by 4 hour incubation in MEM media. Compounds were added to the cells in 1% final concentration DMSO. After 30 minutes, cells were lysed, and pyruvate kinase activity in lysates was determined by Pyruvate Kinase Activity Assay (BioVision, Milpitas, Calif.). Maximum velocity values were calculated from the kinetic data, and AC50 values were determined using Prism GraphPad Software (La Jolla, Calif.). Compound washout experiments were as described above, except after a 30 minute incubation with Example 244 (469 nM), the cells were washed with PBS followed by the addition of MEM media for the indicated time period, lysed and pyruvate kinase activity determined. Results are tabulated in Table 3 and presented graphically in FIGS. 6A and 6B.
Target sequence in this assay (P14618 2-531 limits assumed): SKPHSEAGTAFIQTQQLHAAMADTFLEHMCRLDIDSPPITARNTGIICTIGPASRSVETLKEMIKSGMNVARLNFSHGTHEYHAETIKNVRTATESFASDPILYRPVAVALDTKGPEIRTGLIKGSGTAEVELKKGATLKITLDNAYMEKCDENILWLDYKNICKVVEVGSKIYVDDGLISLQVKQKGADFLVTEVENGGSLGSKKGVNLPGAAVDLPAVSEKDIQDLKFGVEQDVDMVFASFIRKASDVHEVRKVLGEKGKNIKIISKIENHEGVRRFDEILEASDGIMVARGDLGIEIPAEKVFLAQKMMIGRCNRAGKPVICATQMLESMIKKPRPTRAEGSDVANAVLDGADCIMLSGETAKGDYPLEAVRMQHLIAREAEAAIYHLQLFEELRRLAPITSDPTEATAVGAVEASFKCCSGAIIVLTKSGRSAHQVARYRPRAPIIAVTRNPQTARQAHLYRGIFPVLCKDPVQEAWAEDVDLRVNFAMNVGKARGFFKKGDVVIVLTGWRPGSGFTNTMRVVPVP

PKM2 [4] = target: T1, PKM2; assay: Cell-Based Pyruvate Kinase Activity Assay, NCI-H1299; parameters: host or cells: A549 or NCI-H1299 lung cancer cells; conditions: NCI-H1299, 30 minutes with compound, n = 4; read-out: Cellular PKM2 activation EC50
Method: as §3, §4
Target sequence in this assay (P14618 2-531 limits assumed): as above

EC50 (PC3 cells): 156 nM | IC50 [1]: ≥ 100 nM | IC50 (786-O): > 30000 nM | IC50 (A549): 100 nM | IC50 (AsPC1): > 30000 nM | IC50 (HCT116): 100 nM | IC50 (LNCaP): > 30000 nM | IC50 (MDA-MB468): > 30000 nM | IC50 (MiaPaCa2): 200 nM | IC50 (NCI-H1975): 90 nM | IC50 (NCI-H460): 5000 nM | IC50 (OVCAR-3): 20 nM | IC50 (SW48): > 30000 nM | IC50 (SW948): > 30000 nM | Max. Resp. (PKM2 [2]; % maximum response in a biochemical assay as compared with Fructose 1,6-bisphosphate): 100% | Emax (PKM2 [2]; read-out: % FBP (extent of maximal activation, relative to FBP)): 104 ± 11% | AC50 (PKM2 [2]; read-out: AC50 (concentration of half-maximal PKM2 activation), Table 2, n = 6 to 10): 11 ± 4 nM | AC50 (PKM2 [2]; read-out: PKM2 AC50, 2 nM PKM2, 75 μM ADP, 15 μM PEP, Kinase Glo): 11 nM | Maximal PKM2 activity (PKM2 [2]; relative to activity in DMSO controls (normalized to 100%), FIG. 1B): approximately 600% | EC50 (PKM2 [3]): 260 ± 120 nM | EC50 (PKM2 [4]): 220 ± 50 nM
Compound: O=C(c1cc(C(F)(F)F)n[nH]1)N(Cc1ccc(O)cc1F)CC1CCC1 [Example 1, N-(cyclobutylmethyl)-N-(2-fluoro-4-hydroxybenzyl)-3-(trifluoromethyl)-1H-pyrazole-5-carboxamide]
IC50 (Ls174T): > 30000 nM | IC50 (PL45): > 30000 nM | IC50 (PSN-1): > 30000 nM | IC50 (UMUC-3): > 30000 nM
